Data published in US5530126A, “Process for the preparation of substituted 6-(pyrazol-3yl)-1,4-benzoxazin-3-ones” (Monsanto Company, priority 1994, dated 1996).

Columns and labels:
Format in all cases: in vivo
Morningglory [1] = assay: Pre-emergence herbicide test; conditions: Ipomoea, read-out: % plant inhibition (Mogl); for inhibition at 11210 g/ha: 11.21 kg/ha; for inhibition at 1120 g/ha: 1.12 kg/ha
Summary of the method: (§1)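 Seeds placed atop topsoil compacted to 0.95 to 1.27 cm below pan rim. Active ingredient (known amount) applied to seed bed in organic solvent or water. Untreated topsoil layer added to level; greenhouse growth with subirrigation; % inhibition at usually 11 days.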

Yellow nutsedge [2] = assay: Pre-emergence herbicide test; conditions: Cyperus, read-out: % plant inhibition (Yens); for inhibition at 11210 g/ha: 11.21 kg/ha; for inhibition at 1120 g/ha: 1.12 kg/ha
Summary of the method: as §1

Downy Brome [3] = assay: Pre-emergence herbicide test; conditions: Bromus tectorum, read-out: % plant inhibition (Dobr); for inhibition at 11210 g/ha: 11.21 kg/ha; for inhibition at 1120 g/ha: 1.12 kg/ha
Summary of the method: as §1

Seedling johnsongrass [4] = assay: Pre-emergence herbicide test; conditions: Sorghum halepense, read-out: % plant inhibition (Sejg); for inhibition at 11210 g/ha: 11.21 kg/ha; for inhibition at 1120 g/ha: 1.12 kg/ha
Summary of the method: as §1

Barnyardgrass [5] = assay: Pre-emergence herbicide test; conditions: Echinochloa crus-galli, read-out: % plant inhibition (Bygr); for inhibition at 11210 g/ha: 11.21 kg/ha; for inhibition at 1120 g/ha: 1.12 kg/ha
Summary of the method: as §1

Indian Mustard [6] = assay: Pre-emergence herbicide test; conditions: Brassica juncea, read-out: % plant inhibition (Inmu); for inhibition at 11210 g/ha: 11.21 kg/ha; for inhibition at 1120 g/ha: 1.12 kg/ha
Summary of the method: as §1

Annual bluegrass [7] = assay: Pre-emergence herbicide test; conditions: read-out: % plant inhibition (Anbg); for inhibition at 11210 g/ha: 11.21 kg/ha; for inhibition at 1120 g/ha: 1.12 kg/ha
Summary of the method: as §1

Velvetleaf [8] = assay: Pre-emergence herbicide test; conditions: Abutilon theophrasti, read-out: % plant inhibition (Vele); for inhibition at 11210 g/ha: 11.21 kg/ha; for inhibition at 1120 g/ha: 1.12 kg/ha
Summary of the method: as §1

Cocklebur [9] = assay: Pre-emergence herbicide test; conditions: Xanthium strumarium, read-out: % plant inhibition (Cobu); for inhibition at 11210 g/ha: 11.21 kg/ha; for inhibition at 1120 g/ha: 1.12 kg/ha
Summary of the method: as §1

Wild buckwheat [10] = assay: Pre-emergence herbicide test; conditions: Fallopia convolvulus, read-out: % plant inhibition (Wibw); for inhibition at 11210 g/ha: 11.21 kg/ha; for inhibition at 1120 g/ha: 1.12 kg/ha
Summary of the method: as §1

Morningglory [11] = assay: Post-emergence herbicide test; conditions: Ipomoea, read-out: % plant inhibition (Mogl); for inhibition at 11210 g/ha: 11.21 kg/ha; for inhibition at 1120 g/ha: 1.12 kg/ha
Summary of the method: (§2)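 Injury scored as percent inhibition against untreated control, usually at 11 days and occasionally at 25 days post-treatment. Greenhouse plants (2–3 weeks) received an atomized spray (~0.4% emulsifier, 1870 L/Ha, 10 psig).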

Yellow nutsedge [12] = assay: Post-emergence herbicide test; conditions: Cyperus, read-out: % plant inhibition (Yens); for inhibition at 11210 g/ha: 11.21 kg/ha; for inhibition at 1120 g/ha: 1.12 kg/ha
Summary of the method: as §2

Downy Brome [13] = assay: Post-emergence herbicide test; conditions: Bromus tectorum, read-out: % plant inhibition (Dobr); for inhibition at 11210 g/ha: 11.21 kg/ha; for inhibition at 1120 g/ha: 1.12 kg/ha
Summary of the method: as §2

Seedling johnsongrass [14] = assay: Post-emergence herbicide test; conditions: Sorghum halepense, read-out: % plant inhibition (Sejg); for inhibition at 11210 g/ha: 11.21 kg/ha; for inhibition at 1120 g/ha: 1.12 kg/ha
Summary of the method: as §2

Barnyardgrass [15] = assay: Post-emergence herbicide test; conditions: Echinochloa crus-galli, read-out: % plant inhibition (Bygr); for inhibition at 11210 g/ha: 11.21 kg/ha; for inhibition at 1120 g/ha: 1.12 kg/ha
Summary of the method: as §2

Indian Mustard [16] = assay: Post-emergence herbicide test; conditions: Brassica juncea, read-out: % plant inhibition (Inmu); for inhibition at 11210 g/ha: 11.21 kg/ha; for inhibition at 1120 g/ha: 1.12 kg/ha
Summary of the method: as §2

Annual bluegrass [17] = assay: Post-emergence herbicide test; conditions: read-out: % plant inhibition (Anbg); for inhibition at 11210 g/ha: 11.21 kg/ha; for inhibition at 1120 g/ha: 1.12 kg/ha
Summary of the method: as §2

Velvetleaf [18] = assay: Post-emergence herbicide test; conditions: Abutilon theophrasti, read-out: % plant inhibition (Vele); for inhibition at 11210 g/ha: 11.21 kg/ha; for inhibition at 1120 g/ha: 1.12 kg/ha
Summary of the method: as §2

Cocklebur [19] = assay: Post-emergence herbicide test; conditions: Xanthium strumarium, read-out: % plant inhibition (Cobu); for inhibition at 11210 g/ha: 11.21 kg/ha; for inhibition at 1120 g/ha: 1.12 kg/ha
Summary of the method: as §2

Wild buckwheat [20] = assay: Post-emergence herbicide test; conditions: Fallopia convolvulus, read-out: % plant inhibition (Wibw); for inhibition at 11210 g/ha: 11.21 kg/ha; for inhibition at 1120 g/ha: 1.12 kg/ha
Summary of the method: as §2

SMILES | inhibition at 1120 g/ha (Morningglory [1]) [%] | inhibition at 1120 g/ha (Yellow nutsedge [2]) [%] | inhibition at 1120 g/ha (Downy Brome [3]) [%] | inhibition at 1120 g/ha (Seedling johnsongrass [4]) [%] | inhibition at 1120 g/ha (Barnyardgrass [5]) [%] | inhibition at 1120 g/ha (Indian Mustard [6]) [%] | inhibition at 1120 g/ha (Annual bluegrass [7]) [%] | inhibition at 1120 g/ha (Velvetleaf [8]) [%] | inhibition at 1120 g/ha (Cocklebur [9]) [%] | inhibition at 1120 g/ha (Wild buckwheat [10]) [%] | inhibition at 1120 g/ha (Morningglory [11]) [%] | inhibition at 1120 g/ha (Yellow nutsedge [12]) [%] | inhibition at 1120 g/ha (Downy Brome [13]) [%] | inhibition at 1120 g/ha (Seedling johnsongrass [14]) [%] | inhibition at 1120 g/ha (Barnyardgrass [15]) [%] | inhibition at 1120 g/ha (Indian Mustard [16]) [%] | inhibition at 1120 g/ha (Annual bluegrass [17]) [%] | inhibition at 1120 g/ha (Velvetleaf [18]) [%] | inhibition at 1120 g/ha (Cocklebur [19]) [%] | inhibition at 1120 g/ha (Wild buckwheat [20]) [%] | other results
Cn1nc(-c2cc([N+](=O)[O-])c(Cl)cc2Cl)c(Cl)c1C(F)(F)F [Compound 86] |  |  |  |  |  |  |  |  |  |  |  |  |  |  |  |  |  |  |  |  | inhibition at 11210 g/ha (Morningglory [1]): 20%; inhibition at 11210 g/ha (Yellow nutsedge [2]): 0%; inhibition at 11210 g/ha (Downy Brome [3]): 0%; inhibition at 11210 g/ha (Seedling johnsongrass [4]): 0%; inhibition at 11210 g/ha (Barnyardgrass [5]): 0%; inhibition at 11210 g/ha (Indian Mustard [6]): 30%; inhibition at 11210 g/ha (Annual bluegrass [7]): 0%; inhibition at 11210 g/ha (Velvetleaf [8]): 90%; inhibition at 11210 g/ha (Cocklebur [9]): 10%; inhibition at 11210 g/ha (Wild buckwheat [10]): 100%; inhibition at 11210 g/ha (Morningglory [11]): 100%; inhibition at 11210 g/ha (Yellow nutsedge [12]): 10%; inhibition at 11210 g/ha (Downy Brome [13]): 0%; inhibition at 11210 g/ha (Seedling johnsongrass [14]): 80%; inhibition at 11210 g/ha (Barnyardgrass [15]): 80%; inhibition at 11210 g/ha (Indian Mustard [16]): 60%; inhibition at 11210 g/ha (Annual bluegrass [17]): 30%; inhibition at 11210 g/ha (Velvetleaf [18]): 100%; inhibition at 11210 g/ha (Cocklebur [19]): 70%; inhibition at 11210 g/ha (Wild buckwheat [20]): 100%
CCOC(=O)CON=C(C)c1cc(-c2nn(C)c(C(F)(F)F)c2Cl)c(F)cc1Cl [Compound 104] | 80 | 0 | 80 | 80 | 10 | 80 | 20 | 90 | 20 | 70 | 100 | 20 | 40 | 80 | 50 | 40 | 30 | 100 | 70 | 100 | 
Cn1nc(-c2cc(O)c(Cl)cc2F)c(Cl)c1C(F)(F)Cl [Compound 329] | 70 | 0 | 0 | 0 | 0 | 90 | 0 | 100 | 0 | 100 | 100 | 0 | 90 | 90 | 90 | 100 | 90 | 100 | 90 | 100 | 
COc1cc(-c2nn(C)c(C(F)(F)F)c2Cl)c(F)cc1Br [Compound 94] | 90 | 20 | 100 | 100 | 100 | 100 | 100 | 100 | 60 | 100 | 90 | 10 | 100 | 90 | 100 | 80 | 90 | 100 | 80 | 100 | 
CCOC(=O)C(C)Oc1cc(-c2nn(C)c(C(F)(F)F)c2Cl)c(F)cc1Cl (centres unmarked) [Compound 229, 2-(2-Chloro-5-(4-chloro-1-methyl-5-(trifluoromethyl)-1H-pyrazol-3-yl)-4-fluorophenoxy)propanoic acid, ethyl ester] | 100 | 60 | 100 | 100 | 90 | 100 | 100 | 100 | 90 | 100 | 100 | 40 | 90 | 100 | 100 | 100 | 70 | 100 | 100 | 100 | 
Cn1nc(-c2cc(NC(=O)C(F)(F)F)c(Cl)cc2Cl)c(Cl)c1C(F)(F)F [Compound 88] |  |  |  |  |  |  |  |  |  |  |  |  |  |  |  |  |  |  |  |  | inhibition at 11210 g/ha (Morningglory [1]): 10%; inhibition at 11210 g/ha (Yellow nutsedge [2]): 10%; inhibition at 11210 g/ha (Downy Brome [3]): 10%; inhibition at 11210 g/ha (Seedling johnsongrass [4]): 30%; inhibition at 11210 g/ha (Barnyardgrass [5]): 10%; inhibition at 11210 g/ha (Indian Mustard [6]): 20%; inhibition at 11210 g/ha (Annual bluegrass [7]): 20%; inhibition at 11210 g/ha (Velvetleaf [8]): 80%; inhibition at 11210 g/ha (Cocklebur [9]): 20%; inhibition at 11210 g/ha (Wild buckwheat [10]): 100%; inhibition at 11210 g/ha (Morningglory [11]): 100%; inhibition at 11210 g/ha (Yellow nutsedge [12]): 0%; inhibition at 11210 g/ha (Downy Brome [13]): 10%; inhibition at 11210 g/ha (Seedling johnsongrass [14]): 70%; inhibition at 11210 g/ha (Barnyardgrass [15]): 50%; inhibition at 11210 g/ha (Indian Mustard [16]): 60%; inhibition at 11210 g/ha (Annual bluegrass [17]): 10%; inhibition at 11210 g/ha (Velvetleaf [18]): 100%; inhibition at 11210 g/ha (Cocklebur [19]): 100%; inhibition at 11210 g/ha (Wild buckwheat [20]): 100%
Cn1nc(-c2cc(C(C)(C)C#N)c(Cl)cc2F)c(Cl)c1C(F)(F)F [Compound 103] | 60 | 0 | 70 | 40 | 20 | 40 | 20 | 50 | 0 | 100 | 80 | 10 | 30 | 70 | 80 | 70 | 40 | 100 | 60 | 100 | 
COC(=O)Cc1cc(-c2nn(C)c(C(F)(F)F)c2Cl)c(F)cc1Cl [Compound 110] | 70 | 0 | 0 | 0 | 20 | 80 | 0 | 100 | 50 | 70 | 80 | 20 | 20 | 40 | 70 | 30 | 30 | 100 | 60 | 100 | 
Cn1nc(-c2cc(CC(=O)NCCCl)c(Cl)cc2F)c(Cl)c1C(F)(F)F [Compound 113] |  |  |  |  |  |  |  |  |  |  |  |  |  |  |  |  |  |  |  |  | inhibition at 11210 g/ha (Morningglory [1]): 30%; inhibition at 11210 g/ha (Yellow nutsedge [2]): 0%; inhibition at 11210 g/ha (Downy Brome [3]): 0%; inhibition at 11210 g/ha (Seedling johnsongrass [4]): 30%; inhibition at 11210 g/ha (Barnyardgrass [5]): 80%; inhibition at 11210 g/ha (Indian Mustard [6]): 80%; inhibition at 11210 g/ha (Annual bluegrass [7]): 10%; inhibition at 11210 g/ha (Velvetleaf [8]): 80%; inhibition at 11210 g/ha (Cocklebur [9]): 0%; inhibition at 11210 g/ha (Wild buckwheat [10]): 40%; inhibition at 11210 g/ha (Morningglory [11]): 30%; inhibition at 11210 g/ha (Yellow nutsedge [12]): 0%; inhibition at 11210 g/ha (Downy Brome [13]): 0%; inhibition at 11210 g/ha (Seedling johnsongrass [14]): 0%; inhibition at 11210 g/ha (Barnyardgrass [15]): 0%; inhibition at 11210 g/ha (Indian Mustard [16]): 0%; inhibition at 11210 g/ha (Annual bluegrass [17]): 0%; inhibition at 11210 g/ha (Velvetleaf [18]): 50%; inhibition at 11210 g/ha (Cocklebur [19]): 20%; inhibition at 11210 g/ha (Wild buckwheat [20]): 20%
C#CCOc1cc(-c2c(Cl)c(C(F)(F)F)nn2C)c(F)cc1Cl [Compound 76] | 40 | 0 | 10 | 0 | 0 | 60 | 10 | 50 | 20 | 100 | 50 | 10 | 30 | 40 | 50 | 70 | 40 | 90 | 40 | 100 | 
